Assay [1] relates to CD44^hiCD24^lo CSCs in MDA-MB-231 cells. As to the kind of experiment: FACS analysis of CD44^hiCD24^lo cancer stem cells in MDA-MB-231 cells treated with P1 analogues. In kind it is cell-based, human. To be noted: 50 μM peptide, 48 hours; for CD44^hiCD24^lo CSCs (%) / COI, Live Single CD44^hiCD24^lo CSCs (Cell Count): n = 1; for Average Inhibition of CSCs (%) / CD44^hiCD24^lo CSCs (%) Repeat 1 / CD44^hiCD24^lo CSCs (%) Repeat 2 / CD44^hiCD24^lo CSCs (%) Repeat 3: n = 3. As for the experimental part:
Analogues of P1 (Table 6) were designed and synthesized in accordance with the procedure of Example 5. The ability of these analogues to inhibit cancer stem cells was determined using FACS analysis on MDA-MB-231 cells, which constitutively contain approximately 90% CD44^hiCD24^lo cancer stem cells, treated with the peptides.
(§1) Non-adherent cells were removed during the washing steps.
For orientation: Flow cytometry measures light scatter and fluorescence of single cells or particles in a stream.

In a further assay the test system is MDA-MB-231 cells. In kind it is cell-based, human. To be noted: 50 μM peptide, 48 hours, n = 1.
Text: as §1

SMILES strings stand for the structures. Where a SMILES comes first, the peptide text is derived from it. The star is where a group is joined. Myristoyl = CCCCCCCCCCCCCC(=O)*
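Wherever COI, Live Single Cells (Cell Count) is given: live means Hoechst-negative events among single cells.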

On to `CCCCCCCCCCCCCC(=O)N[C@@H](CC(C)C)C(=O)N[C@H](C(=O)N[C@@H](CCCCN)C(=O)N[C@H](C(=O)N[C@@H](Cc1ccccc1)C(=O)N[C@@H](CCCNC(=N)N)C(=O)N[C@@H](CC(C)C)C(=O)N[C@@H](CCCNC(=N)N)C(=O)N[C@@H](CCCCN)C(=O)NCC(=O)N[C@@H](CCCNC(=N)N)C(=O)N[C@@H](CCSC)C(=O)N[C@@H](CCSC)C(=O)N[C@@H](CC(=O)O)C(=O)N[C@H](C(=O)N[C@@H](CCCCN)C(=O)N[C@@H](CCCCN)C(N)=O)C(C)C)[C@@H](C)CC)[C@@H](C)O` [Peptide 2853808, Myristoyl-LTKIFRLRKGRMMDVKK-NH2] (Myristoyl-LTKIFRLRKGRMMDVKK-NH2), for which, in assay [1], the “Inhibition of CSCs (%) Repeat 1” value was determined as 87.54%, the “Inhibition of CSCs (%) Repeat 2” value is given as 84.31%, the “Inhibition of CSCs (%) Repeat 3” value amounted to 84.48% and the “CD44^hiCD24^lo CSCs (%)” value turned out to be 10.74%. Also, in assay [1], the “COI, Live Single CD44^hiCD24^lo CSCs (Cell Count)” value stood at 26; the “Average Inhibition of CSCs (%)” value was found to be 85.44%; the “CD44^hiCD24^lo CSCs (%) Repeat 1” value is listed as 11.17%; the “CD44^hiCD24^lo CSCs (%) Repeat 2” value worked out at 14.07%. In addition, the “CD44^hiCD24^lo CSCs (%) Repeat 3” value in assay [1] was 13.92%. Also, in the assay with MDA-MB-231 cells, the “COI (Cell Count)” value amounted to 323; the “COI, Live Single Cells (Cell Count)” value was 242; the “COI, Single (Cell Count)” value worked out at 279; the “Total Cell Count” value stood at 1192.

With `CCCCCCCCCCCCCC(=O)N[C@@H](CC(C)C)C(=O)N[C@H](C(=O)N[C@@H](Cc1ccccc1)C(=O)N[C@H](C(=O)N[C@@H](Cc1ccccc1)C(=O)N[C@@H](CCCNC(=N)N)C(=O)N[C@@H](CC(C)C)C(=O)N[C@@H](CCCNC(=N)N)C(=O)N[C@@H](CCCCN)C(=O)NCC(=O)N[C@@H](CCCNC(=N)N)C(=O)N[C@@H](CCSC)C(=O)N[C@@H](CCSC)C(=O)N[C@@H](CC(=O)O)C(=O)N[C@H](C(=O)N[C@@H](CCCNC(=N)N)C(=O)N[C@@H](CCCCN)C(N)=O)C(C)C)[C@@H](C)CC)[C@@H](C)O` [Peptide 2853840, Myristoyl-LTFIFRLRKGRMMDVRK-NH2] (Myristoyl-LTFIFRLRKGRMMDVRK-NH2), in assay [1], the “Inhibition of CSCs (%) Repeat 1” value was 82.01%, the “Inhibition of CSCs (%) Repeat 2” value is on record as 81.08%, the “Inhibition of CSCs (%) Repeat 3” value came out at 83.80% and the “CD44^hiCD24^lo CSCs (%)” value is on record as 18.83%. In addition, in assay [1], the “COI, Live Single CD44^hiCD24^lo CSCs (Cell Count)” value amounted to 58; the “Average Inhibition of CSCs (%)” value came to 82.30%; the “CD44^hiCD24^lo CSCs (%) Repeat 1” value stood at 16.13%; the “CD44^hiCD24^lo CSCs (%) Repeat 2” value is on record as 16.97%. Also, the “CD44^hiCD24^lo CSCs (%) Repeat 3” value in assay [1] is given as 14.54%. For the same compound, in the assay on MDA-MB-231 cells, the “COI (Cell Count)” value is reported as 709; the “COI, Live Single Cells (Cell Count)” value worked out at 308; the “COI, Single (Cell Count)” value is given as 487; the “Total Cell Count” value was found to be 3715.

Turning to `CCCCCCCCCCCCCC(=O)N[C@@H](CC(C)C)C(=O)N[C@H](C(=O)N[C@@H](CCC(=O)O)C(=O)N[C@H](C(=O)N[C@@H](Cc1ccccc1)C(=O)N[C@@H](CCCNC(=N)N)C(=O)N[C@@H](CC(C)C)C(=O)N[C@@H](CCCNC(=N)N)C(=O)N[C@@H](CCCCN)C(=O)NCC(=O)N[C@@H](CCCNC(=N)N)C(=O)N[C@@H](CCSC)C(=O)N[C@@H](CCSC)C(=O)N[C@@H](CC(=O)O)C(=O)N[C@H](C(=O)N[C@@H](CCCCN)C(=O)N[C@@H](CCCCN)C(N)=O)C(C)C)[C@@H](C)CC)[C@@H](C)O` [Peptide 2853807, Myristoyl-LTEIFRLRKGRMMDVKK-NH2] (Myristoyl-LTEIFRLRKGRMMDVKK-NH2), in assay [1], the “Inhibition of CSCs (%) Repeat 1” value is recorded as 84.07%, the “Inhibition of CSCs (%) Repeat 2” value is reported as 81.60%, the “Inhibition of CSCs (%) Repeat 3” value is recorded as 86.81% and the “CD44^hiCD24^lo CSCs (%)” value was found to be 11.31%. Also, in assay [1], the “COI, Live Single CD44^hiCD24^lo CSCs (Cell Count)” value is 19; the “Average Inhibition of CSCs (%)” value stood at 84.16%; the “CD44^hiCD24^lo CSCs (%) Repeat 1” value came out at 14.28%; the “CD44^hiCD24^lo CSCs (%) Repeat 2” value was found to be 16.51%. Moreover, the “CD44^hiCD24^lo CSCs (%) Repeat 3” value in assay [1] worked out at 11.84%. Besides, in the assay on MDA-MB-231 cells, the “COI (Cell Count)” value is listed as 690; the “COI, Live Single Cells (Cell Count)” value stood at 168; the “COI, Single (Cell Count)” value amounted to 439; the “Total Cell Count” value is reported as 3558.
